Test results from PubChem BioAssay (NCI).
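Where inhibition never reached the appropriate level, the endpoint shown equals the highest concentration tested. Otherwise, values were interpolated linearly from a five-concentration, 48-hour dose response in 96-well plates. Abbreviation: GI50, concentration required for 50% inhibition of growth. TGI marks complete inhibition of growth.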

What was measured:
Experiment in all cases: inhibition of tumour cell growth, NCI panel, 48 h
MDA-MB-231 breast = test system: MDA-MB-231 breast
SW-620 colon = test system: SW-620 colon
HS 578T breast = test system: HS 578T breast
SK-MEL-5 melanoma = test system: SK-MEL-5 melanoma
NCI-H23 lung = test system: NCI-H23 lung
HCT-15 colon = test system: HCT-15 colon
OVCAR-5 ovarian = test system: OVCAR-5 ovarian
SK-MEL-2 melanoma = test system: SK-MEL-2 melanoma
COLO 205 colon = test system: COLO 205 colon
MCF7 breast = test system: MCF7 breast
OVCAR-4 ovarian = test system: OVCAR-4 ovarian
SK-MEL-28 melanoma = test system: SK-MEL-28 melanoma
DU-145 prostate = test system: DU-145 prostate
SF-539 CNS = test system: SF-539 CNS
786-0 renal = test system: 786-0 renal
SF-295 CNS = test system: SF-295 CNS
HL-60(TB) leukemia = test system: HL-60(TB) leukemia
TK-10 renal = test system: TK-10 renal
KM12 colon = test system: KM12 colon
SR leukemia = test system: SR leukemia
OVCAR-8 ovarian = test system: OVCAR-8 ovarian
RXF 393 renal = test system: RXF 393 renal
UO-31 renal = test system: UO-31 renal
HCT-116 colon = test system: HCT-116 colon
SK-OV-3 ovarian = test system: SK-OV-3 ovarian
M14 melanoma = test system: M14 melanoma
MOLT-4 leukemia = test system: MOLT-4 leukemia
NCI-H522 lung = test system: NCI-H522 lung
OVCAR-3 ovarian = test system: OVCAR-3 ovarian
CAKI-1 renal = test system: CAKI-1 renal
SNB-75 CNS = test system: SNB-75 CNS
NCI-H226 lung = test system: NCI-H226 lung
K-562 leukemia = test system: K-562 leukemia
SNB-19 CNS = test system: SNB-19 CNS
IGROV1 ovarian = test system: IGROV1 ovarian
HCC-2998 colon = test system: HCC-2998 colon
NCI-H460 lung = test system: NCI-H460 lung
UACC-257 melanoma = test system: UACC-257 melanoma
HOP-92 NSCLC = test system: HOP-92 NSCLC
EKVX NSCLC = test system: EKVX NSCLC
SF-268 CNS = test system: SF-268 CNS
A549 NSCLC = test system: A549 NSCLC
PC-3 prostate = test system: PC-3 prostate
MALME-3M melanoma = test system: MALME-3M melanoma
ACHN renal = test system: ACHN renal
UACC-62 melanoma = test system: UACC-62 melanoma
HOP-62 NSCLC = test system: HOP-62 NSCLC
NCI/ADR-RES ovarian = test system: NCI/ADR-RES ovarian
SN12C renal = test system: SN12C renal
A498 renal = test system: A498 renal
HT29 colon = test system: HT29 colon
RPMI-8226 leukemia = test system: RPMI-8226 leukemia
BT-549 breast = test system: BT-549 breast
CCRF-CEM leukemia = test system: CCRF-CEM leukemia
MDA-MB-435 = test system: MDA-MB-435
U251 CNS = test system: U251 CNS
T-47D breast = test system: T-47D breast
LOX IMVI melanoma = test system: LOX IMVI melanoma

SMILES: COc1cc(/C=C\[N+](=O)[O-])ccc1O
- GI50 (MDA-MB-231 breast): 2.6 µM
- TGI (MDA-MB-231 breast): 8.94 µM
- GI50 (SW-620 colon): 2.1 µM
- TGI (SW-620 colon): 5.02 µM
- GI50 (HS 578T breast): 4.71 µM
- TGI (HS 578T breast): 28.8 µM
- GI50 (SK-MEL-5 melanoma): 1.77 µM
- TGI (SK-MEL-5 melanoma): 3.24 µM
- GI50 (NCI-H23 lung): 3.34 µM
- TGI (NCI-H23 lung): 11.4 µM
- GI50 (HCT-15 colon): 1.85 µM
- TGI (HCT-15 colon): 6.03 µM
- GI50 (OVCAR-5 ovarian): 3.94 µM
- TGI (OVCAR-5 ovarian): 14.5 µM
- GI50 (SK-MEL-2 melanoma): 2.8 µM
- TGI (SK-MEL-2 melanoma): 10.4 µM
- GI50 (COLO 205 colon): 2.36 µM
- TGI (COLO 205 colon): 5.74 µM
- GI50 (MCF7 breast): 1.63 µM
- TGI (MCF7 breast): 4.28 µM
- GI50 (OVCAR-4 ovarian): 3.86 µM
- TGI (OVCAR-4 ovarian): 14.1 µM
- GI50 (SK-MEL-28 melanoma): 1.95 µM
- TGI (SK-MEL-28 melanoma): 4.59 µM
- GI50 (DU-145 prostate): 2.41 µM
- TGI (DU-145 prostate): 5.93 µM
- GI50 (SF-539 CNS): 2.03 µM
- TGI (SF-539 CNS): 5.18 µM
- GI50 (786-0 renal): 1.81 µM
- TGI (786-0 renal): 3.94 µM
- GI50 (SF-295 CNS): 17.2 µM
- TGI (SF-295 CNS): 31.5 µM
- GI50 (HL-60(TB) leukemia): 2.39 µM
- TGI (HL-60(TB) leukemia): 6.31 µM
- GI50 (TK-10 renal): 1.72 µM
- TGI (TK-10 renal): 3.41 µM
- GI50 (KM12 colon): 4.93 µM
- TGI (KM12 colon): 17.3 µM
- GI50 (SR leukemia): 0.987 µM
- TGI (SR leukemia): 38.5 µM
- GI50 (OVCAR-8 ovarian): 3.21 µM
- TGI (OVCAR-8 ovarian): 12.1 µM
- GI50 (RXF 393 renal): 1.91 µM
- TGI (RXF 393 renal): 3.48 µM
- GI50 (UO-31 renal): 1.48 µM
- TGI (UO-31 renal): 3.25 µM
- GI50 (HCT-116 colon): 1.83 µM
- TGI (HCT-116 colon): 3.43 µM
- GI50 (SK-OV-3 ovarian): 12.7 µM
- TGI (SK-OV-3 ovarian): 25.9 µM
- GI50 (M14 melanoma): 2.05 µM
- TGI (M14 melanoma): 4.98 µM
- GI50 (MOLT-4 leukemia): 2.76 µM
- TGI (MOLT-4 leukemia): 7.23 µM
- GI50 (NCI-H522 lung): 1.3 µM
- TGI (NCI-H522 lung): 3.02 µM
- GI50 (OVCAR-3 ovarian): 1.9 µM
- TGI (OVCAR-3 ovarian): 3.36 µM
- GI50 (CAKI-1 renal): 2.85 µM
- TGI (CAKI-1 renal): 10.9 µM
- GI50 (SNB-75 CNS): 3.35 µM
- TGI (SNB-75 CNS): 17.2 µM
- GI50 (NCI-H226 lung): 4.34 µM
- TGI (NCI-H226 lung): 16.6 µM
- GI50 (K-562 leukemia): 3.17 µM
- TGI (K-562 leukemia): 10.8 µM
- GI50 (SNB-19 CNS): 4.92 µM
- TGI (SNB-19 CNS): 18 µM
- GI50 (IGROV1 ovarian): 2.61 µM
- TGI (IGROV1 ovarian): 6.97 µM
- GI50 (HCC-2998 colon): 1.98 µM
- TGI (HCC-2998 colon): 3.63 µM
- GI50 (NCI-H460 lung): 3.51 µM
- TGI (NCI-H460 lung): 13.7 µM
- GI50 (UACC-257 melanoma): 2.42 µM
- TGI (UACC-257 melanoma): 6.77 µM
- GI50 (HOP-92 NSCLC): 1.26 µM
- TGI (HOP-92 NSCLC): 3.73 µM
- GI50 (EKVX NSCLC): 11.8 µM
- TGI (EKVX NSCLC): 24.6 µM
- GI50 (SF-268 CNS): 3.44 µM
- TGI (SF-268 CNS): 12.8 µM
- GI50 (A549 NSCLC): 3.34 µM
- TGI (A549 NSCLC): 12.7 µM
- GI50 (PC-3 prostate): 8.63 µM
- TGI (PC-3 prostate): 21.6 µM
- GI50 (MALME-3M melanoma): 1.91 µM
- TGI (MALME-3M melanoma): 4.91 µM
- GI50 (ACHN renal): 2.36 µM
- TGI (ACHN renal): 6.01 µM
- GI50 (UACC-62 melanoma): 1.78 µM
- TGI (UACC-62 melanoma): 3.99 µM
- GI50 (HOP-62 NSCLC): 3.21 µM
- TGI (HOP-62 NSCLC): 13.8 µM
- GI50 (NCI/ADR-RES ovarian): 2.84 µM
- TGI (NCI/ADR-RES ovarian): 7.95 µM
- GI50 (SN12C renal): 2.49 µM
- TGI (SN12C renal): 7.74 µM
- GI50 (A498 renal): 12.3 µM
- TGI (A498 renal): 24.8 µM
- GI50 (HT29 colon): 2.98 µM
- TGI (HT29 colon): 10.6 µM
- GI50 (RPMI-8226 leukemia): 2.2 µM
- TGI (RPMI-8226 leukemia): 6.11 µM
- GI50 (BT-549 breast): 2.39 µM
- TGI (BT-549 breast): 6.51 µM
- GI50 (CCRF-CEM leukemia): 2.25 µM
- TGI (CCRF-CEM leukemia): 7.23 µM
- GI50 (MDA-MB-435): 2.16 µM
- TGI (MDA-MB-435): 5.98 µM
- GI50 (U251 CNS): 2.99 µM
- TGI (U251 CNS): 10.6 µM
- GI50 (T-47D breast): 2.33 µM
- TGI (T-47D breast): 9.95 µM
- GI50 (LOX IMVI melanoma): 1.74 µM
- TGI (LOX IMVI melanoma): 3.39 µM
